Test results published in patent US4371537A, “Sulfur-substituted phenoxypyridines having antiviral activity” (The Dow Chemical Company, priority 1981, dated 1983).
In brackets after ≈: the same amount, converted by molar mass.

Columns and labels:
[1] = system: RV-1A, RV-2 or Cox A21; assay: Summary of HeLa tissue culture testing against the test viruses; type: cell-based, rhinovirus types 1A and 2, Coxsackie A21 virus; settings: for antiviral activity in tissue culture: active on RV-1A and RV-2 at a test concentration equivalent to the cytotoxic concentration
Procedure: (§1) Monolayered HeLa cells in 16 millimeter (mm) tissue culture dishes were treated with 1 ml of culture medium (Eagles medium supplemented with fetal calf serum) containing subject compound at an appropriate concentration or containing no compound at all. Culture media such as those described herein are more fully described in standard texts, as for example, Kuchler's Biochemical Methods in Cell Culture and Virology, Dowden, Hutchinson and Ross, Inc., Stroudsberg, PA (1977). Following treatment, cells were challenged with 0.05 ml of rhinovirus type 1A (RV-1A), rhinovirus type 2 (RV-2) or Coxsackie A21 virus (Cox A21) in culture medium. Some of the compounds were also tested against rhinovirus type 5 (RV-5), rhinovirus type 8 (RV-8) or rhinovirus type 64 (RV-64). Cell controls received no viruses.

[2] = system: Rhinovirus Type 13; assay: Inhibition of cytopathic effect in WI-38 cell culture tubes, rhinovirus type 13; type: cell-based; settings: Enterovirus; 25 μg/ml; WI-38 cells; read-out: Inhibition grade, Rhinovirus Type 13
Procedure: (§2) The test compound was dissolved in an appropriate solvent (generally dimethyl sulfoxide) and incubated at 56° C. for at least 15 minutes and this solution was then used to prepare various test solutions having the desired concentration of test compound in preheated WI maintenance medium (49% Eagles, 49% medium 199, 2% fetal calf serum and antibiotics).
(§3) Triplicate cell culture tubes (WI-38 human embryonic lung cell culture tubes) were fed with 1 ml of medium containing the compound at specified concentrations and inoculated with 3-300 TCID50 (3-300 times the tissue culture infective dose 50, i.e., the dose required to infect 50% of the cell cultures tested). Simultaneous viral titrations were performed. The tissue cultures were supplemented with fresh medium when necessary (around 3-4 days) until viral titrations were completed.
(§4) The cell culture tubes were examined dialy for cytopathic effect. […] Comparisons were made at that time with the percentage of cell sheet destruction in tubes containing virus compound mixtures. Observed differences of 75% or more were graded "+", 74-50% as "±", and less than 50% as "-" inhibition.

[3] = system: Rhinovirus Type 74; assay: Inhibition of cytopathic effect in WI-38 cell culture tubes, rhinovirus type 74; type: cell-based; settings: Enterovirus; 25 μg/ml; WI-38 cells; read-out: Inhibition grade, Rhinovirus Type 74
Procedure: as §2, §3, §4

[4] = system: Rhinovirus Type 6; assay: Inhibition of cytopathic effect in WI-38 cell culture tubes, rhinovirus type 6; type: cell-based; settings: Enterovirus; 25 μg/ml; WI-38 cells; read-out: Inhibition grade, Rhinovirus Type 6
Procedure: as §2, §3, §4

[5] = system: Rhinovirus Type 59; assay: Inhibition of cytopathic effect in WI-38 cell culture tubes, rhinovirus type 59; type: cell-based; settings: Enterovirus; 25 μg/ml; WI-38 cells; read-out: Inhibition grade, Rhinovirus Type 59
Procedure: as §2, §3, §4

[6] = system: Rhinovirus Type 64; assay: Inhibition of cytopathic effect in WI-38 cell culture tubes, rhinovirus type 64; type: cell-based; settings: Enterovirus; 25 μg/ml; WI-38 cells; read-out: Inhibition grade, Rhinovirus Type 64
Procedure: as §2, §3, §4

[7] = Cytotoxicity in tissue culture testing (HeLa monolayers); type: cell-based; settings: human; HeLa cells; observed at 48 and 72 hours post-treatment; read-out: Cytotoxicity: concentration of the compound found to be toxic to the cell
Summary of the method: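 HeLa monolayers treated with compound in Eagle's medium with fetal calf serum, then challenged with rhinovirus (RV-1A, RV-2, some RV-5, RV-8, RV-64) or Coxsackie A21. Untreated and virus-free cell controls included.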

[8] = system: Rhinovirus Type 39; assay: Inhibition of cytopathic effect in WI-38 cell culture tubes, rhinovirus type 39; type: cell-based; settings: Enterovirus; 25 μg/ml; WI-38 cells; read-out: Inhibition grade, Rhinovirus Type 39
Procedure: as §2, §3, §4

[9] = system: Rhinovirus Type 58; assay: Inhibition of cytopathic effect in WI-38 cell culture tubes, rhinovirus type 58; type: cell-based; settings: Enterovirus; 25 μg/ml; WI-38 cells; read-out: Inhibition grade, Rhinovirus Type 58
Procedure: as §2, §3, §4

[10] = system: Rhinovirus Type 81; assay: Inhibition of cytopathic effect in WI-38 cell culture tubes, rhinovirus type 81; type: cell-based; settings: Enterovirus; 25 μg/ml; WI-38 cells; read-out: Inhibition grade, Rhinovirus Type 81
Procedure: as §2, §3, §4

[11] = system: Rhinovirus Type 75; assay: Inhibition of cytopathic effect in WI-38 cell culture tubes, rhinovirus type 75; type: cell-based; settings: Enterovirus; 25 μg/ml; WI-38 cells; read-out: Inhibition grade, Rhinovirus Type 75
Procedure: as §2, §3, §4

[12] = system: Rhinovirus Type 4; assay: Inhibition of cytopathic effect in WI-38 cell culture tubes, rhinovirus type 4; type: cell-based; settings: Enterovirus; 25 μg/ml; WI-38 cells; read-out: Inhibition grade, Rhinovirus Type 4
Procedure: as §2, §3, §4

[13] = system: Rhinovirus Type 8; assay: Inhibition of cytopathic effect in WI-38 cell culture tubes, rhinovirus type 8; type: cell-based; settings: Enterovirus; 25 μg/ml; WI-38 cells; read-out: Inhibition grade, Rhinovirus Type 8
Procedure: as §2, §3, §4

[14] = system: Rhinovirus Type 21; assay: Inhibition of cytopathic effect in WI-38 cell culture tubes, rhinovirus type 21; type: cell-based; settings: Enterovirus; 25 μg/ml; WI-38 cells; read-out: Inhibition grade, Rhinovirus Type 21
Procedure: as §2, §3, §4

[15] = system: Rhinovirus Type 56; assay: Inhibition of cytopathic effect in WI-38 cell culture tubes, rhinovirus type 56; type: cell-based; settings: Enterovirus; 25 μg/ml; WI-38 cells; read-out: Inhibition grade, Rhinovirus Type 56
Procedure: as §2, §3, §4

[16] = system: rhinovirus type 8 (RV-8); assay: Tissue culture testing, rhinovirus type 8 in HeLa cells; type: cell-based; settings: Enterovirus, 48 and 72 hours, NA = not active at the standard test conditions, read-out: RV-8: lowest concentration of the compound necessary to cause a 50 percent reduction in cytopathic effect
Procedure: as §1
(§5) ^2 Lowest concentration of the compound (μg/ml) necessary to cause

[17] = system: rhinovirus type 5 (RV-5); assay: Tissue culture testing, rhinovirus type 5 in HeLa cells; type: cell-based; settings: Enterovirus, 48 and 72 hours, NA = not active at the standard test conditions, read-out: RV-5: lowest concentration of the compound necessary to cause a 50 percent reduction in cytopathic effect
Procedure: as §1, §5

[18] = system: Hanks Untyped; assay: Inhibition of cytopathic effect in WI-38 cell culture tubes, Hanks Untyped; type: cell-based, rhinovirus; settings: Enterovirus; 25 μg/ml; WI-38 cells; read-out: Inhibition grade, Hanks Untyped
Procedure: as §2, §3, §4

[19] = system: Rhinovirus Type 19; assay: Inhibition of cytopathic effect in WI-38 cell culture tubes, rhinovirus type 19; type: cell-based; settings: Enterovirus; 25 μg/ml; WI-38 cells; read-out: Inhibition grade, Rhinovirus Type 19
Procedure: as §2, §3, §4

[20] = system: Rhinovirus Type 10; assay: Inhibition of cytopathic effect in WI-38 cell culture tubes, rhinovirus type 10; type: cell-based; settings: Enterovirus; 25 μg/ml; WI-38 cells; read-out: Inhibition grade, Rhinovirus Type 10
Procedure: as §2, §3, §4

[21] = system: Rhinovirus Type 17; assay: Inhibition of cytopathic effect in WI-38 cell culture tubes, rhinovirus type 17; type: cell-based; settings: Enterovirus; 25 μg/ml; WI-38 cells; read-out: Inhibition grade, Rhinovirus Type 17
Procedure: as §2, §3, §4

[22] = system: rhinovirus type 1A (RV-1A); assay: Tissue culture testing, rhinovirus type 1A in HeLa cells; type: cell-based; settings: Enterovirus, 48 and 72 hours, NA = not active at the standard test conditions, read-out: RV-1A: lowest concentration of the compound necessary to cause a 50 percent reduction in cytopathic effect
Summary of the method: (§6)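 HeLa monolayers, compound in Eagle's medium + fetal calf serum, then virus challenge; no-compound and no-virus controls. Value = lowest active concentration, μg/ml.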

[23] = system: rhinovirus type 2 (RV-2); assay: Tissue culture testing, rhinovirus type 2 in HeLa cells; type: cell-based; settings: Enterovirus, 48 and 72 hours, NA = not active at the standard test conditions, read-out: RV-2: lowest concentration of the compound necessary to cause a 50 percent reduction in cytopathic effect
Summary of the method: as §6

[24] = system: Rhinovirus Type 68; assay: Inhibition of cytopathic effect in WI-38 cell culture tubes, rhinovirus type 68; type: cell-based; settings: Enterovirus; 25 μg/ml; WI-38 cells; read-out: Inhibition grade, Rhinovirus Type 68
Procedure: as §2, §3, §4

[25] = system: Rhinovirus Type 60; assay: Inhibition of cytopathic effect in WI-38 cell culture tubes, rhinovirus type 60; type: cell-based; settings: Enterovirus; 25 μg/ml; WI-38 cells; read-out: Inhibition grade, Rhinovirus Type 60
Procedure: as §2, §3, §4

[26] = system: Cox A21; assay: Single Oral Dose test in mice challenged IP with Cox A21; type: in vivo, Swiss male mice; settings: 600 mg/kg P.O. 3 h after IP challenge; >3.84 significant (95% confidence level)
Summary of the method: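 Swiss male mice (8-12 g) infected IP with a lethal Cox A21 dose (80-100% mortality within 10 days), then given a single oral dose of compound in 0.5% Methocel 3 h later. Deaths recorded daily for 7-10 days; modified Mantel-Haenzel chi-square versus virus controls, >3.84 significant.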

[27] = system: Rhinovirus Type 29; assay: Inhibition of cytopathic effect in WI-38 cell culture tubes, rhinovirus type 29; type: cell-based; settings: Enterovirus; 25 μg/ml; WI-38 cells; read-out: Inhibition grade, Rhinovirus Type 29
Procedure: as §2, §3, §4

[28] = system: Coxsackie A21 virus (Cox A21); assay: Tissue culture testing, Coxsackie A21 virus in HeLa cells; type: cell-based; settings: 48 and 72 hours, NA = not active at the standard test conditions, read-out: Cox A21: lowest concentration of the compound necessary to cause a 50 percent reduction in cytopathic effect
Summary of the method: as §6

[29] = system: Coxsackie A21 virus; assay: Continuous Oral Feeding test in mice challenged IP with Coxsackie A21 virus; type: in vivo; settings: po, 0.06 % in diet, 240 h
Summary of the method: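 Mice (8 to 12 g) fed rodent chow containing 0.06% (weight percent) test compound from day 0, challenged IP on day 1 with 0.2 ml HeLa-grown virus at a dose giving 80 to 100% deaths within 10 days. Deaths recorded over 10 days versus controls; chi-square test, values >3.84 taken as active (95% confidence).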

In the case of `CCS(=O)(=O)c1cccnc1Oc1ccc(Cl)c(Cl)c1` [2-(3,4-dichlorophenoxy)-3-(ethylsulfonyl)pyridine], the “antiviral activity in tissue culture” value [1] is reported as “only marginally active”.
For `CS(=O)(=O)c1cccc(Oc2ccc(Br)cc2)n1` [2-(4-bromophenoxy)-6-(methylsulfonyl)pyridine], the “antiviral activity in tissue culture” value [1] was “only marginally active”.
In the case of `CS(=O)(=O)c1ccc(Oc2ccc(Cl)c(Cl)c2)nc1` [Example 40, 2-(3,4-dichlorophenoxy)-5-(methylsulfonyl)pyridine], the inhibition at 25 µg/mL [2] is reported as at least 75%, the inhibition at 25 µg/mL [3] is reported as at least 75% and the inhibition at 25 µg/mL [4] is reported as under 50%. The inhibition at 25 µg/mL [5] was 50 to 74%, the inhibition at 25 µg/mL [6] was at least 75% and the MCC [7] was 50 µg/mL. The inhibition at 25 µg/mL [8] was at least 75%, the inhibition at 25 µg/mL [9] was at least 75% and the inhibition at 25 µg/mL [10] was at least 75%. For the same molecule, the inhibition at 25 µg/mL [11] was under 50%, the inhibition at 25 µg/mL [12] was under 50% and the inhibition at 25 µg/mL [13] was under 50%. It also gave an inhibition at 25 µg/mL [14] of at least 75%, an inhibition at 25 µg/mL [15] of at least 75% and an EC50 [16] of about 12.5 µg/mL (≈ 39.3 µM). For the same molecule, the EC50 [17] was 25 µg/mL (≈ 78.6 µM), the inhibition at 25 µg/mL [18] was at least 75% and the inhibition at 25 µg/mL [19] was at least 75%. It also gave an inhibition at 25 µg/mL [20] of at least 75%, an inhibition at 25 µg/mL [21] of at least 75% and an EC50 [22] of at most 0.31 µg/mL. For the same molecule, the EC50 [23] was 0.625 µg/mL (≈ 1.96 µM), the inhibition at 25 µg/mL [24] was at least 75% and the inhibition at 25 µg/mL [25] was 50 to 74%. For the same molecule, the “Single Oral Dose X^2 (chi-square, deaths vs virus control)” value [26] was 22.807, the inhibition at 25 µg/mL [27] was at least 75% and the EC50 [28] was at most 6.25 µg/mL.
In the case of `CC(C)S(=O)(=O)c1ccc(Oc2ccc(C(=O)c3ccccc3)cc2)nc1` [Example 51], the MCC [7] is reported as 4 µg/mL, the “Continuous Oral Feeding X^2 (chi-square, deaths vs control)” value [29] is reported as 17.705 and the “antiviral activity in initial tissue culture testing” value ([1]; initial test) is reported as “did not show activity against the test viruses”. For the same molecule, the “antiviral activity on retest” value ([1]; retest (data in Table 3), RV-1A and RV-2) was “did show activity against RV-1A and RV-2”, the EC50 [22] was 4 µg/mL (≈ 10.5 µM) and the EC50 [23] was 2 µg/mL (≈ 5.24 µM). For the same molecule, the “Single Oral Dose X^2 (chi-square, deaths vs virus control)” value [26] was 3.085.
With `CCS(=O)(=O)c1cccnc1Oc1ccc(C(=O)c2ccccc2)cc1` [Example 74] the MCC [7] was 50 µg/mL, the “antiviral activity in tissue culture” value [1] was “only marginally active” and the EC50 [22] was 50 µg/mL (≈ 136 µM). The EC50 [23] was about 50 µg/mL (≈ 136 µM).
